Results on 62 compounds are retold here after patent publication US12581252B2, “Substituted pyrrolo[3,4-b]pyridines as PI3K-α inhibitors” (Relay Therapeutics, Inc., priority 2020, dated 2026).

For the experiment, the target named is H1047R PIK3CA enzyme (Homo sapiens, UniProt P42336, H1047R). Briefly: ADP-Glo Biochemical PIK3CA Kinase Assay. For orientation: ADP-Glo turns the ADP formed in a reaction into a luminescent signal.
H1047R PIK3CA enzyme, sequence (P42336 whole entry H1047R): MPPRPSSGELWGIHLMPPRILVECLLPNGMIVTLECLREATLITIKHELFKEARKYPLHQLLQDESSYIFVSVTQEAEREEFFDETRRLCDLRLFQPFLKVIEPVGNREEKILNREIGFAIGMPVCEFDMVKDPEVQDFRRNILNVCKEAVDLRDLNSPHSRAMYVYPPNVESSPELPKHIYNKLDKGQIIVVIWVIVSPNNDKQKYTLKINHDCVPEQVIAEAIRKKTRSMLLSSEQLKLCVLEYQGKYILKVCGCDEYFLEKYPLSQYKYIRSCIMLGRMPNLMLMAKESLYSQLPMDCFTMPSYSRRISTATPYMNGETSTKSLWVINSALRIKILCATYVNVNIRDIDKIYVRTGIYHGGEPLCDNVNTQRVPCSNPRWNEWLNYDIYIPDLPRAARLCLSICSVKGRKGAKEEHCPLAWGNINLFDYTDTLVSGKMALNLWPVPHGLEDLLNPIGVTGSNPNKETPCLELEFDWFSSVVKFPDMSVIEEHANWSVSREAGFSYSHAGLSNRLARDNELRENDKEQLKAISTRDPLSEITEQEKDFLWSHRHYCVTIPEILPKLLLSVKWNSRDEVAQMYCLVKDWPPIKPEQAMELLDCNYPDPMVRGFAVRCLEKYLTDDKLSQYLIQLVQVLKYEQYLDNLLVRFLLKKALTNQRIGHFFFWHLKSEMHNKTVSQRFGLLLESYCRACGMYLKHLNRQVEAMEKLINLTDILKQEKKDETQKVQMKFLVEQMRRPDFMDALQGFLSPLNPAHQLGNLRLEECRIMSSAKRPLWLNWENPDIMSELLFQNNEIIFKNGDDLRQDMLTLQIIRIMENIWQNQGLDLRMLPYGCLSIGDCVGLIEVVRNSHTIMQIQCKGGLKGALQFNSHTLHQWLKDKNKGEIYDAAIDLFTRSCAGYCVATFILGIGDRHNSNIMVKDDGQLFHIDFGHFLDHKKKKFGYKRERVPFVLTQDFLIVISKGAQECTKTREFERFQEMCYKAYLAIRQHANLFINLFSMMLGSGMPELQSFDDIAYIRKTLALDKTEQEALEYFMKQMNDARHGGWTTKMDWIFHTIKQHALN
H1047R PIK3CA enzyme, sequence (P27986 whole entry partner): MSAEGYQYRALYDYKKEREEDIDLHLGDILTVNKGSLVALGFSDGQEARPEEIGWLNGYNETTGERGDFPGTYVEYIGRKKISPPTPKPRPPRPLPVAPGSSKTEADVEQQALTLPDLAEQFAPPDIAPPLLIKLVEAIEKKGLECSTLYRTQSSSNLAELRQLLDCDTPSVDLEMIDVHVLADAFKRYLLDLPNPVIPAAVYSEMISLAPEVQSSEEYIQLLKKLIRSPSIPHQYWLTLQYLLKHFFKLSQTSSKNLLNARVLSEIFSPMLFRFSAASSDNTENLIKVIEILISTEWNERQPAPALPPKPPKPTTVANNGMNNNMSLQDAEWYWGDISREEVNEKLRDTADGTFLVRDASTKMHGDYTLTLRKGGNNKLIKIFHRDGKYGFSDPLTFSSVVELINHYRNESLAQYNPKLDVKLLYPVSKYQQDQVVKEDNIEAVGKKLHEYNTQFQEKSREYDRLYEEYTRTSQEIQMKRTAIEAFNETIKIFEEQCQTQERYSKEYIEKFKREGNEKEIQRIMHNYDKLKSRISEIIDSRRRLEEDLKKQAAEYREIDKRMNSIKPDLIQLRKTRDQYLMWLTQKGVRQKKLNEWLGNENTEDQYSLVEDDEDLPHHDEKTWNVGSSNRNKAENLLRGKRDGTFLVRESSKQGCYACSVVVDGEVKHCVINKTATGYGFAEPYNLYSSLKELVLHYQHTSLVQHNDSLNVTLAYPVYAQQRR
In general, IC50 refers to the concentration needed to halve the response being measured. High values mean a need for much substance, low ones inhibition by little substance. Take `O=C(Nc1cc(-c2ccc3nnc(Cl)n3c2)cc2c1[C@H](c1cc(F)ccc1Cl)NC2=O)c1cc(F)cc(C(F)(F)F)c1` [Compound I-1734]: the IC50 was not above 0.1 µM.
To `O=C(Nc1cc(OCc2cncnc2)cc2c1C(c1cc(F)ccc1Cl)NC2=O)c1cc(F)cc(C(F)(F)F)c1` (centres unmarked) [Compound I-1735] belongs not above 0.1 µM.
For `Nc1ccc(COc2cc(NC(=O)c3cc(F)cc(C(F)(F)F)c3)c3c(c2)C(=O)NC3c2cc(F)ccc2Cl)cn1` (centres unmarked) [Compound I-1736] the value was not above 0.1 µM; for `Cn1cc(-c2cc(NC(=O)c3cc(F)cc(C(F)(F)F)c3)c3c(c2)C(=O)N[C@@H]3c2cc(F)ccc2Cl)c(C#N)n1` [Compound I-1737], 10 to 100 µM; for `Cn1cc(-c2cc(NC(=O)c3cc(F)cc(C(F)(F)F)c3)c3c(c2)C(=O)N[C@H]3c2cc(F)ccc2Cl)c(C#N)n1` [Compound I-1738], not above 0.1 µM.
For `N#Cc1nc2cc(-c3cc(NC(=O)c4cc(F)cc(C(F)(F)F)c4)c4c(c3)C(=O)NC4c3cc(F)ccc3Cl)ccn2n1` (centres unmarked) [Compound I-1741] the value was not above 0.1 µM.
As for `O=C1NC(c2cc(F)ccc2Cl)c2c1cc(-c1ccc3ncnn3c1)cc2S(=O)(=O)Cc1ccccc1` (centres unmarked) [Compound I-1742], the IC50 fell in the range of 1 to 10 µM.
For `CC(=O)N1CCCC(C(=O)Nc2cc(-c3ccc4ncnn4c3)cc3c2C(c2cc(F)ccc2Cl)NC3=O)C1` (centres unmarked) [Compound I-1743] the value was 10 to 100 µM.
To `CC(=O)N1CCC(C(=O)Nc2cc(-c3ccc4ncnn4c3)cc3c2C(c2cc(F)ccc2Cl)NC3=O)CC1` (centres unmarked) [Compound I-1744] belongs 10 to 100 µM.
For `O=C(Nc1cc(Br)cc2c1C(c1cc(F)ccc1Cl)NC2=O)c1cc(F)cc(CC(F)F)c1` (centres unmarked) [Compound I-1745] the value was 1 to 10 µM.
For `O=C1NC(c2cc(F)ccc2Cl)c2c1cccc2N1Cc2ccccc2CC1=O` (centres unmarked) [Compound I-1746], the IC50 was in the range of 10 to 100 µM.
To `O=C(Nc1cccc2c1C(C1CCCNC1)NC2=O)c1cc(F)cc(C(F)(F)F)c1` (centres unmarked) [Compound I-1747] belongs 10 to 100 µM; to `O=C1NC(c2cc(F)ccc2Cl)c2c(NC(=O)C3CCCC(F)(F)C3)cc(-c3ccc4ncnn4c3)cc21` (centres unmarked) [Compound I-1750], 1 to 10 µM; to `O=C1NC(c2cc(F)ccc2Cl)c2c(NC(=O)C3CCNCC3)cc(-c3ccc4ncnn4c3)cc21` (centres unmarked) [Compound I-1751], 10 to 100 µM.
For `O=C(Nc1cccc2c1[C@H]([C@@H]1CCCC(F)(F)C1)NC2=O)c1cc(F)cc(C(F)(F)F)c1` [Compound I-1752] the value was 1 to 10 µM.
To `O=C1NC(c2cc(F)ccc2Cl)c2c(NC(=O)N3CC4CC(F)(C4)C3)cc(Br)cc21` (centres unmarked) [Compound I-1753] belongs 10 to 100 µM.
In turn, `O=C1NC(c2cc(F)ccc2Cl)c2c(NC(=O)N3CC4CCC4(C(F)(F)F)C3)cc(Br)cc21` (centres unmarked) [Compound I-1754] returned an IC50 of 1 to 10 µM.
For `O=C(Nc1cc(Br)cc2c1C(c1cc(F)ccc1Cl)NC2=O)NC1(CC(F)(F)F)CC1` (centres unmarked) [Compound I-1755] the value was 10 to 100 µM; for `O=C1NC(c2cc(F)ccc2Cl)c2c(NC(=O)N3CCC4C(C3)C4C(F)(F)F)cc(Br)cc21` (centres unmarked) [Compound I-1756], 1 to 10 µM.
To `CC(C)(CC(=O)Nc1cc(Br)cc2c1C(c1cc(F)ccc1Cl)NC2=O)C(F)(F)F` (centres unmarked) [Compound I-1757] belongs 10 to 100 µM.
Regarding `CN1CCC(C(=O)Nc2cc(-c3ccc4ncnn4c3)cc3c2C(c2cc(F)ccc2Cl)NC3=O)CC1` (centres unmarked) [Compound I-1758], the IC50 lay within 10 to 100 µM.
To `NC1CCC(C(=O)Nc2cc(-c3ccc4ncnn4c3)cc3c2C(c2cc(F)ccc2Cl)NC3=O)CC1` (centres unmarked) [Compound I-1759] belongs 10 to 100 µM; to `O=C(Nc1cc(-c2ccc3ncnn3c2)cc2c1C(c1cc(F)ccc1Cl)NC2=O)C(=NO)c1ccccc1` (centres unmarked) [Compound I-1760], 10 to 100 µM.
To `O=C(Nc1cccc2c1C(CN1CCCC1)NC2=O)c1cc(F)cc(C(F)(F)F)c1` (centres unmarked) [Compound I-1761] belongs 10 to 100 µM; to `N#Cc1cnn2ccc(-c3cc(NC(=O)c4cc(F)cc(C(F)(F)F)c4)c4c(c3)C(=O)NC4c3cc(F)ccc3Cl)cc12` (centres unmarked) [Compound I-1762], not above 0.1 µM; to `O=C(Nc1cc(-c2ccn3nccc3n2)cc2c1C(c1cc(F)ccc1Cl)NC2=O)c1cc(F)cc(C(F)(F)F)c1` (centres unmarked) [Compound I-1763], not above 0.1 µM.
For `O=C(Nc1cc(-c2ccn3ncnc3c2F)cc2c1[C@@H](c1cc(F)ccc1Cl)NC2=O)c1cc(F)cc(C(F)(F)F)c1` [Compound I-1764] the value was 1 to 10 µM.
With `O=C(Nc1cc(-c2ccn3ncnc3c2F)cc2c1[C@H](c1cc(F)ccc1Cl)NC2=O)c1cc(F)cc(C(F)(F)F)c1` [Compound I-1765], the IC50 is not above 0.1 µM.
For `CC1(C)CC1C1NC(=O)c2cccc(NC(=O)c3cc(F)cc(C(F)(F)F)c3)c21` (centres unmarked) [Compound I-1766] the value was 1 to 10 µM; for `N#Cc1cnc2cnc(-c3cc(NC(=O)c4cc(F)cc(C(F)(F)F)c4)c4c(c3)C(=O)NC4c3cc(F)ccc3Cl)cn12` (centres unmarked) [Compound I-1767], not above 0.1 µM; for `O=C(Nc1cc(-c2ccc(=O)n(C(F)F)c2)cc2c1C(c1cc(F)ccc1Cl)NC2=O)c1cc(F)cc(C(F)(F)F)c1` (centres unmarked) [Compound I-1768], not above 0.1 µM.
To `O=C(Cc1cc(-c2ccc3ncnn3c2)cc2c1C(c1cc(F)ccc1Cl)NC2=O)c1cc(F)cc(C(F)(F)F)c1` (centres unmarked) [Compound I-1772] belongs 0.1 to 0.5 µM.
For `O=C(Nc1cc(-c2ccc3ncnn3c2)cc2c1C(c1cc(F)ccc1Cl)NC2=O)c1cc(CO)cc(C(F)(F)F)c1` (centres unmarked) [Compound I-1773] the value was 10 to 100 µM.
As for `NC(=O)c1cc(-c2ccc3ncnn3c2)cc2c1C(c1cc(F)ccc1Cl)NC2=O` (centres unmarked) [Compound I-1774], the IC50 lay in the range of 1 to 10 µM.
To `O=C1NC(c2cc(F)ccc2Cl)c2ccc(-c3ccc4ncnn4c3)cc21` (centres unmarked) [Compound I-1775] belongs 10 to 100 µM; to `CC(O)C1NC(=O)c2cccc(NC(=O)c3cc(F)cc(C(F)(F)F)c3)c21` (centres unmarked) [Compound I-1776], 1 to 10 µM.
To `O=C(CC1CCC1)Nc1cc(-c2ccc3ncnn3c2)cc2c1C(c1cc(F)ccc1Cl)NC2=O` (centres unmarked) [Compound I-1777] belongs 10 to 100 µM.
For `O=C1NC(c2cc(F)ccc2Cl)c2c(NC(=O)C3CCC3)cc(-c3ccc4ncnn4c3)cc21` (centres unmarked) [Compound I-1778] the value was 10 to 100 µM; for `O=C(CC1CC1)Nc1cc(-c2ccc3ncnn3c2)cc2c1C(c1cc(F)ccc1Cl)NC2=O` (centres unmarked) [Compound I-1781], 10 to 100 µM; for `O=C1NC(c2cc(F)ccc2Cl)c2c(NC(=O)C3CCCC3)cc(-c3ccc4ncnn4c3)cc21` (centres unmarked) [Compound I-1782], 10 to 100 µM.
Compound `O=C(CN1CCCC1)Nc1cc(-c2ccc3ncnn3c2)cc2c1C(c1cc(F)ccc1Cl)NC2=O` (centres unmarked) [Compound I-1783] registered an IC50 of 10 to 100 µM.
`O=C(O)c1cc(-c2ccc3ncnn3c2)cc2c1C(c1cc(F)ccc1Cl)NC2=O` (centres unmarked) [Compound I-1784] gave an IC50 of 10 to 100 µM.
To `NC(=O)C(C(=O)Nc1cc(-c2ccc3ncnn3c2)cc2c1C(c1cc(F)ccc1Cl)NC2=O)c1ccccc1` (centres unmarked) [Compound I-1787] belongs 1 to 10 µM.
On to `CN1CCCC(C(=O)Nc2cc(-c3ccc4ncnn4c3)cc3c2C(c2cc(F)ccc2Cl)NC3=O)C1` (centres unmarked) [Compound I-1792], for which the IC50 lay in the range of 1 to 10 µM.
To `O=C(Nc1cc(-c2ccc3ncc(F)n3c2)cc2c1C(c1cc(F)ccc1Cl)NC2=O)c1cc(F)cc(C(F)(F)F)c1` (centres unmarked) [Compound I-1793] belongs not above 0.1 µM; to `Cn1ncc(-c2cc(NC(=O)c3cc(F)cc(C(F)(F)F)c3)c3c(c2)C(=O)N[C@@H]3c2cc(F)ccc2Cl)c1C#N` [Compound I-1794], 1 to 10 µM.
To `Cn1ncc(-c2cc(NC(=O)c3cc(F)cc(C(F)(F)F)c3)c3c(c2)C(=O)N[C@H]3c2cc(F)ccc2Cl)c1C#N` [Compound I-1795] belongs not above 0.1 µM; to `N#Cc1cnc2ncc(-c3cc(NC(=O)c4cc(F)cc(C(F)(F)F)c4)c4c(c3)C(=O)NC4c3cc(F)ccc3Cl)cn12` (centres unmarked) [Compound I-1796], not above 0.1 µM; to `N#Cc1cnc2c(F)cc(-c3cc(NC(=O)c4cc(F)cc(C(F)(F)F)c4)c4c(c3)C(=O)NC4c3cc(F)ccc3Cl)cn12` (centres unmarked) [Compound I-1797], not above 0.1 µM.
To `N#Cc1cnn2ccc(-c3cc(NC(=O)c4cc(F)cc(C(F)(F)F)c4)c4c(c3)C(=O)N[C@@H]4c3cc(F)ccc3Cl)cc12` [Compound I-1798] belongs 1 to 10 µM; to `N#Cc1cnn2ccc(-c3cc(NC(=O)c4cc(F)cc(C(F)(F)F)c4)c4c(c3)C(=O)N[C@H]4c3cc(F)ccc3Cl)cc12` [Compound I-1799], not above 0.1 µM.
In turn, `N#CC1(n2cc(-c3cc(NC(=O)c4cc(F)cc(C(F)(F)F)c4)c4c(c3)C(=O)NC4c3cc(F)ccc3Cl)cn2)CC1` (centres unmarked) [Compound I-1800] came in with an IC50 not above 0.1 µM.
For `N#Cc1cc(-c2ccc3ncnn3c2)cc2c1C(c1cc(F)ccc1Cl)NC2=O` (centres unmarked) [Compound I-1801] the value was 1 to 10 µM; for `O=C(Nc1cc(-c2ccc3ncnn3c2)c(-c2ccc3ncnn3c2)c2c1C(c1cc(F)ccc1Cl)NC2=O)c1cc(F)cc(C(F)(F)F)c1` (centres unmarked) [Compound I-1802], 0.1 to 0.5 µM; for `O=C1NC(c2cc(F)ccc2Cl)c2c(NC(=O)C3CCCCO3)cc(-c3ccc4ncnn4c3)cc21` (centres unmarked) [Compound I-1803], 10 to 100 µM.
For `O=C(Nc1cccc2c1C(c1ccccc1)NC2=O)c1cc(F)cc(C(F)(F)F)c1` (centres unmarked) [Compound I-1805] the value was 1 to 10 µM.
In turn, `NC(=O)Cn1nc(Nc2cc(-c3ccc4ncnn4c3)cc3c2C(c2cc(F)ccc2Cl)NC3=O)c2ccccc21` (centres unmarked) [Compound I-1806] gave an IC50 of 1 to 10 µM.
`O=C1NC(c2cc(F)ccc2Cl)c2c(Nc3nn(CCO)c4ccccc34)cc(-c3ccc4ncnn4c3)cc21` (centres unmarked) [Compound I-1807] came in with an IC50 of 1 to 10 µM.
For `N#CCn1nc(Nc2cc(-c3ccc4ncnn4c3)cc3c2C(c2cc(F)ccc2Cl)NC3=O)c2ccccc21` (centres unmarked) [Compound I-1808] the value was 1 to 10 µM.
To `O=C1NC(c2cc(F)ccc2Cl)c2c(Nc3nn(C4CC4)c4ccccc34)cc(-c3ccc4ncnn4c3)cc21` (centres unmarked) [Compound I-1809] belongs 1 to 10 µM.
`O=C1NC(c2cc(F)ccc2Cl)c2c(NC(=O)N3CCOC(C(F)(F)F)C3)cc(Br)cc21` (centres unmarked) [Compound I-1810] had an IC50 of 1 to 10 µM.
Turning to `NC1(C(=O)Nc2cc(-c3ccc4ncnn4c3)cc3c2C(c2cc(F)ccc2Cl)NC3=O)CCCC1` (centres unmarked) [Compound I-1812], the IC50 was in the range of 10 to 100 µM.
